Read-outs that look alike come from different tables or passages of the source.
Columns and labels:
BRD4(1,2) = BRD4(1,2) (Homo sapiens, UniProt O60885); experiment: BROMOscan ligand-binding assay
Source text: (§6) BROMOscan is a binding assay based on the well-known KINOMEscan technology. This assay measures the binding of a DNA-tagged bromodomain to an immobilized BRD ligand. If an inhibitor is present, it will compete with the bromodomain binding to the immobilized ligand, resulting in reduction of a quantitative PCR (qPCR) signal in a dose-dependent manner.

BRD8(1) = BRD8(1) (Homo sapiens, UniProt Q9H0E9); experiment: BROMOscan ligand-binding assay
Source text: as §6

53BP1 = 53BP1 (Homo sapiens, UniProt Q12888); experiment: Temperature shift assay (non-BRD reader domains); type: binding; conditions: 10µM compound
Protocol: (§1) Temperature shift assays have been described by Fedorov et al.[46]. Recombinant protein domains (bromodomain or kinases) at a concentration of 2 μM in 10 mM HEPES, pH 7.5, and 500 mM NaCl were mixed with 10 μM of chemical probes. Temperature-dependent protein unfolding profiles were measured using a Real-Time PCR Mx3005p machine (Stratagene).
(§2) Wu et al., Supplementary figures and tables 14
(§3) Supplementary Table 3: Selectivity screening data (non-BRD reader domains):
(§4) Temperature shift assay data of BRD probes screened against a diver se panel of methyl-lysine
(§5) reader domains. Compounds were screened a concentration of 10 µM. Shown are temperature

BRPF3 = BRPF3 (Homo sapiens, UniProt Q9ULD4); experiment: Temperature shift assay (non-BRD reader domains); type: binding; conditions: 10µM compound
Protocol: as §1, §2, §3, §4, §5

EED = EED (Homo sapiens, UniProt O75530); experiment: Temperature shift assay (non-BRD reader domains); type: binding; conditions: 10µM compound
Protocol: as §1, §2, §3, §4, §5

RBBP1 = experiment: Temperature shift assay (non-BRD reader domains); type: binding; conditions: 10µM compound
Protocol: as §1, §2, §3, §4, §5

SND1 = target: T1, SND1 (Homo sapiens, UniProt Q7KZF4); experiment: Temperature shift assay (non-BRD reader domains); type: binding; conditions: 10µM compound
T1 sequence (Q7KZF4 729-787 limits assumed): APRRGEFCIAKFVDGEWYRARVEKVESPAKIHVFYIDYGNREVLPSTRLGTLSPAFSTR
Protocol: as §1, §2, §3, §4, §5

TDRD3 = TDRD3 (Homo sapiens, UniProt Q9H7E2); experiment: Temperature shift assay (non-BRD reader domains); type: binding; conditions: 10µM compound
Protocol: as §1, §2, §3, §4, §5

UHRF1 = target: T2, UHRF1 (Homo sapiens, UniProt Q96T88); experiment: Temperature shift assay (non-BRD reader domains); type: binding; conditions: 10µM compound
T2 sequence (Q96T88 126-285 limits assumed): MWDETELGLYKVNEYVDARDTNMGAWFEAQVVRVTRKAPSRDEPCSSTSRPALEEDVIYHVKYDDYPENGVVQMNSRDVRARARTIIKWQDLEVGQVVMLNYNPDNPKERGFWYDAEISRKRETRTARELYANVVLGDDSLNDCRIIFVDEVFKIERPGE
Protocol: as §1, §2, §3, §4, §5

WDR5 = WDR5 (Homo sapiens, UniProt P61964); experiment: Temperature shift assay (non-BRD reader domains); type: binding; conditions: 10µM compound
Protocol: as §1, §2, §3, §4, §5

[1] = KD (BROMOscan), sheet prints no unit (nM)

Sequence of BRD8(1) (Q9H0E9 706-811 limits assumed): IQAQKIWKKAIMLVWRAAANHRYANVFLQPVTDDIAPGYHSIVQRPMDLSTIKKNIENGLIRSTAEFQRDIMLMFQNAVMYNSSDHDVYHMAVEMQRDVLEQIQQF
Sequence of 53BP1 (Q12888 1484-1603 limits assumed, species assumed): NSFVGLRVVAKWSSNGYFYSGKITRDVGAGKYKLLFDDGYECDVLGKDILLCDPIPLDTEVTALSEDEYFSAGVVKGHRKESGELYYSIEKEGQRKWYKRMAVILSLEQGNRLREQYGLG
Sequence of EED (O75530 whole entry, species assumed, the tested form may be a part): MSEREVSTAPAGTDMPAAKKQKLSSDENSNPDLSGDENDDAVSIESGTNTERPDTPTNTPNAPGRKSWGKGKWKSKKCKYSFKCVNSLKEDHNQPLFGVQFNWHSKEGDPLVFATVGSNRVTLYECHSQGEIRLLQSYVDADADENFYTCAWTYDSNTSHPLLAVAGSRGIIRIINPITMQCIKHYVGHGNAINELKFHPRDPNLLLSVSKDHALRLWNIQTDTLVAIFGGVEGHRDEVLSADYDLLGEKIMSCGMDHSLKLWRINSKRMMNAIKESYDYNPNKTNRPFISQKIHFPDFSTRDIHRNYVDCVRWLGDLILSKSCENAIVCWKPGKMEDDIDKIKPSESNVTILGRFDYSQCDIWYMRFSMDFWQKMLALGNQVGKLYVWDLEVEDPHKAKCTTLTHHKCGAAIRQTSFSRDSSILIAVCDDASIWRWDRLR
Sequence of TDRD3 (Q9H7E2 555-615 limits assumed, species assumed): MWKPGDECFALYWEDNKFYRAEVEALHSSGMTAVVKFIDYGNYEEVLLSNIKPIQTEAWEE
Sequence of BRPF3 (Q9ULD4 1076-1159 limits assumed, species assumed): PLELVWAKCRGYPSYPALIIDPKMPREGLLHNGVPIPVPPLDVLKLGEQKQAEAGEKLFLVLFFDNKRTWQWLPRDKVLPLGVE

Work on `Cc1cc(=O)n(C)c2cc(N3C(=O)CC[C@H](NS(=O)(=O)CC(C)C)[C@H]3c3ccc(Cl)cc3)ccc12` [LP-99] yielded a Kd (BRD4(1,2); BROMOscan, BRD4(1,2)) of 41 µM and a Kd (BRD8(1); BROMOscan, BRD8(1)) greater than 50000 nM.

`COc1cc(C#N)ccc1S(=O)(=O)Nc1ccc2c(c1)cc(C)c(=O)n2C` [NI 57] gave a Kd (BRD4(1,2); BRD4(1,2)) of 15 µM and a Kd (BRD8(1); BRD8(1)) greater than 50000 nM.

`CCCS(=O)(=O)c1nc(NC2CC2)cc(-c2ccc3c(ccn3C3CC(C)(C)NC(C)(C)C3)c2)n1` [NVS-CECR2-1] gave a Kd (BRD4(1,2)) of 12 µM and a Kd (BRD8(1)) greater than 30000 nM.

`COc1cc2c(cc1NS(=O)(=O)c1ccc(Br)cc1C)n(C)c(=O)n2C` [OF-1] was tested, and the Kd (BRD8(1); BRD8(1)) was greater than 50000 nM and the Kd (BRD8(1); read-out: KD (BROMOscan), sheet prints no unit (nM)) was greater than 30000 nM.

For `O=C(C=CN1[C@H]2CC[C@@H]1c1ncnc(NC3CC3)c1C2)c1ccccc1O` [PFI-3 D1], the Kd (BRD4(1,2); BROMOscan, BRD4(1,2)) was greater than 30 µM and the Kd (BRD8(1); BROMOscan, BRD8(1)) was greater than 30000 nM.

`O=C(C=CN1CC2CC1CN2c1ccccn1)c1ccccc1O` (stereo not shown) [PFI-3] showed a Kd (BRD8(1); [1]) greater than 30000 nM and a Kd (BRD8(1); KD, BRD8(1)) greater than 100000 nM.

`COc1ccc(CCc2nc3cc(-c4c(C)noc4C)ccc3n2C[C@H](C)N2CCOCC2)cc1Cl` [SGC-CBP30] showed a Kd (BRD4(1,2)) of 3.4 µM, a Kd (BRD8(1); [1]) greater than 30000 nM and a Kd (BRD8(1); KD, BROMOscan, BRD8(1)) greater than 100000 nM.

`O=C(O)c1ccccc1O` [Salicylic Acid] showed a Kd (BRD4(1,2)) greater than 14000 µM and a Kd (BRD8(1); KD, BRD8(1)) greater than 1.4e+07 nM.

For `CN(C)CCCOc1ccc(-c2cc(NCCCn3cccn3)nc(S(C)(=O)=O)n2)cc1` [TP-238], the “Tm (C) 10µM, temperature shift” value (53BP1) was 0.4 Kelvin, the “Tm (C) 10µM, temperature shift” value (BRPF3) was 0.2 Kelvin and the “Tm (C) 10µM, temperature shift” value (EED) was -0.3 Kelvin. The “Tm (C) 10µM, temperature shift” value (RBBP1) was -0.4 Kelvin, the “Tm (C) 10µM, temperature shift” value (SND1) was -0.5 Kelvin and the “Tm (C) 10µM, temperature shift” value (TDRD3) was -0.7 Kelvin. The “Tm (C) 10µM, temperature shift” value (UHRF1) was 0.0 Kelvin and the “Tm (C) 10µM, temperature shift” value (WDR5) was 0.2 Kelvin.
